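Where inhibition never reached the appropriate level, the endpoint shown equals the highest concentration tested. Otherwise, values were interpolated linearly from a five-concentration, 48-hour dose response in 96-well plates. GI50 is the concentration that inhibits growth by half.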 Active and inactive are the calls of the source. Cut-off read from the data, not from the text of the source: active = GI50 up to about 1.1 µM and inactive = higher.
What was measured:
Assay in all cases: growth of human tumour cells (NCI), 48 h
DLD-1 = tested on: DLD-1
OVCAR-8 = tested on: OVCAR-8
DMS-273 = tested on: DMS-273
NCI-H460 = tested on: NCI-H460
HOP-18 = tested on: HOP-18
LOX IMVI = tested on: LOX IMVI
XF498 = tested on: XF498
M19-MEL = tested on: M19-MEL
EKVX = tested on: EKVX
CAKI-1 = tested on: CAKI-1
SF-295 = tested on: SF-295
PC-3 = tested on: PC-3
DU-145 = tested on: DU-145
MDA-N = tested on: MDA-N
MDA-MB-435 = tested on: MDA-MB-435
TK-10 = tested on: TK-10
SNB-78 = tested on: SNB-78
M14 = tested on: M14
KM-20L2 = tested on: KM-20L2
Malme-3M = tested on: Malme-3M

CC(=O)Oc1c(OC(C)=O)c(-c2ccc(O)c(O)c2)c(O)c(O)c1-c1ccc(O)cc1
GI50 (DLD-1): > 100 µM (inactive)
GI50 (OVCAR-8): 46.2 µM (inactive)
GI50 (DMS-273): > 100 µM (inactive)
GI50 (NCI-H460): > 100 µM (inactive)
GI50 (HOP-18): > 100 µM (inactive)
GI50 (LOX IMVI): 29.9 µM (inactive)
GI50 (XF498): 82.2 µM (inactive)
GI50 (M19-MEL): 24.4 µM (inactive)
GI50 (EKVX): > 100 µM (inactive)
GI50 (CAKI-1): > 100 µM (inactive)
GI50 (SF-295): > 100 µM (inactive)

COc1nc(Cl)nc(N[C@H](C)c2c3ccccc3cc3ccccc23)n1
GI50 (PC-3): 14.9 µM (inactive)
GI50 (DU-145): 12.4 µM (inactive)
GI50 (OVCAR-8): 14.8 µM (inactive)
GI50 (MDA-N): 2.71 µM (inactive)
GI50 (MDA-MB-435): 4.31 µM (inactive)
GI50 (NCI-H460): 17 µM (inactive)
GI50 (LOX IMVI): 15.6 µM (inactive)
GI50 (TK-10): 0.807 µM (active)
GI50 (EKVX): 16.1 µM (inactive)
GI50 (CAKI-1): 11.6 µM (inactive)
GI50 (SF-295): 15.6 µM (inactive)

O=C(O)CC/C(=N\Nc1nsc2ccccc12)c1ccccc1
GI50 (OVCAR-8): 66.7 µM (inactive)
GI50 (DMS-273): 24.7 µM (inactive)
GI50 (NCI-H460): 33.6 µM (inactive)
GI50 (SNB-78): 47.8 µM (inactive)
GI50 (HOP-18): > 100 µM (inactive)
GI50 (LOX IMVI): 29.5 µM (inactive)
GI50 (M14): 54.5 µM (inactive)
GI50 (TK-10): > 100 µM (inactive)
GI50 (M19-MEL): 72.3 µM (inactive)
GI50 (KM-20L2): 78.7 µM (inactive)
GI50 (EKVX): > 100 µM (inactive)

Cc1cccc2sc(-c3ccc(O)cc3)nc12
GI50 (PC-3): 17.5 µM (inactive)
GI50 (DU-145): 17.8 µM (inactive)
GI50 (OVCAR-8): 16.7 µM (inactive)
GI50 (MDA-N): 3.97 µM (inactive)
GI50 (MDA-MB-435): 11 µM (inactive)
GI50 (NCI-H460): 18.1 µM (inactive)
GI50 (Malme-3M): 16.9 µM (inactive)
GI50 (LOX IMVI): 18.4 µM (inactive)
GI50 (M14): 15.2 µM (inactive)
GI50 (TK-10): 22.5 µM (inactive)
GI50 (EKVX): 0.579 µM (active)
GI50 (CAKI-1): 16.5 µM (inactive)
GI50 (SF-295): 14.6 µM (inactive)

O=c1cnn(C/C=C/CP(=O)(O)O)c(=O)[nH]1
GI50 (PC-3): > 100 µM (inactive)
GI50 (DU-145): > 100 µM (inactive)
GI50 (OVCAR-8): > 100 µM (inactive)
GI50 (MDA-N): > 100 µM (inactive)
GI50 (MDA-MB-435): > 100 µM (inactive)
GI50 (NCI-H460): > 100 µM (inactive)
GI50 (Malme-3M): > 100 µM (inactive)
GI50 (LOX IMVI): > 100 µM (inactive)
GI50 (M14): > 100 µM (inactive)
GI50 (TK-10): > 100 µM (inactive)
GI50 (EKVX): > 100 µM (inactive)
GI50 (CAKI-1): > 100 µM (inactive)

O=C(Nc1ccc(I)cc1C(=O)NCCO)c1cccs1
GI50 (PC-3): > 100 µM (inactive)
GI50 (OVCAR-8): > 100 µM (inactive)
GI50 (MDA-MB-435): > 100 µM (inactive)
GI50 (NCI-H460): 85.3 µM (inactive)
GI50 (LOX IMVI): > 100 µM (inactive)
GI50 (M14): > 100 µM (inactive)
GI50 (EKVX): > 100 µM (inactive)
GI50 (CAKI-1): > 100 µM (inactive)
GI50 (SF-295): > 100 µM (inactive)

Nc1nc(N)nc(-c2ccccc2NS(=O)(=O)c2ccc([N+](=O)[O-])cc2)n1
GI50 (DLD-1): 59.6 µM (inactive)
GI50 (OVCAR-8): 40.1 µM (inactive)
GI50 (DMS-273): 55.8 µM (inactive)
GI50 (NCI-H460): 42.9 µM (inactive)
GI50 (SNB-78): > 74.1 µM (inactive)
GI50 (Malme-3M): > 100 µM (inactive)
GI50 (HOP-18): > 100 µM (inactive)
GI50 (LOX IMVI): 38.2 µM (inactive)
GI50 (XF498): 18.2 µM (inactive)
GI50 (M19-MEL): 34.9 µM (inactive)
GI50 (KM-20L2): > 100 µM (inactive)
GI50 (EKVX): > 100 µM (inactive)
GI50 (SF-295): 99.1 µM (inactive)

CCOC(=O)C(C)OC(=O)c1ccc(C)cc1 (stereo not given)
GI50 (DLD-1): > 100 µM (inactive)
GI50 (OVCAR-8): > 100 µM (inactive)
GI50 (DMS-273): > 100 µM (inactive)
GI50 (NCI-H460): > 100 µM (inactive)
GI50 (SNB-78): > 100 µM (inactive)
GI50 (Malme-3M): > 100 µM (inactive)
GI50 (HOP-18): > 100 µM (inactive)
GI50 (LOX IMVI): > 100 µM (inactive)
GI50 (XF498): 84.3 µM (inactive)
GI50 (M14): > 100 µM (inactive)
GI50 (TK-10): > 100 µM (inactive)
GI50 (M19-MEL): > 100 µM (inactive)
GI50 (KM-20L2): > 100 µM (inactive)
GI50 (EKVX): > 100 µM (inactive)
GI50 (SF-295): > 10 µM (inactive)

From ChEMBL document CHEMBL1201862, “PubChem BioAssay data set” (2004)
